# From patent US4975434A, “Antiviral and anticancer cyclopentenyl cytosine” (priority 1989, dated 1990)
# “And” between values parts separate entries of the source, which are not always exact repeats. Equal entries are not always repeated. “Also recorded” adds a separate entry of the source.
# Key:
# [1] = test system: vaccinia virus (IHD strain); assay type: in vivo, mouse (CD-I)
# [2] = test system: Herpes simplex type 1 (TK-), strain HF; assay: microbe, parasite or virus in culture; assay type: cell-based
# [3] = test system: Herpes simplex type 2, strain MS; assay: Cytopathogenic inhibition test, HSV-2; assay type: cell-based
# [4] = test system: Vaccinia, strain Lederle CA; assay: microbe, parasite or virus in culture; assay type: cell-based
# [5] = test system: Cytomegalovirus, strain AD 169; assay: Cytomegalovirus (CMV) Yield Reduction Assay; assay type: cell-based
# [6] = test system: Janapese Encephalitis virus, strain Najayama; assay: Antiviral test in vitro, Japanese encephalitis virus; assay type: cell-based, Japanese encephalitis virus; host Vero cells
# [7] = test system: Punta Toro virus, strain Adames; assay: microbe, parasite or virus in culture; assay type: cell-based, Punta Toro virus; host Vero cells
# [8] = test system: Influenza (Hong Kong), strain A2 /Aichi/2/68; assay: microbe, parasite or virus in culture; assay type: cell-based, Influenza virus; host MDCK (Madin Darby canine kidney cells)
# [9] = test system: malignant human promyelocytic leukemia cell line, HL-60; assay: Growth inhibition and differentiation of HL-60 cells (nitroblue tetrazolium reduction); assay type: cell-based
# [10] = test system: HL-60 DNA synthesis / RNA synthesis; assay: Inhibition of nucleic acid (DNA, RNA) synthesis in HL-60 cells; assay type: cell-based, human
# [11] = test system: CTP synthesase; assay: Inhibition of CTP synthesis (CTP synthesase); assay type: biochemical; conditions: result in words
# [12] = test system: Huf (human diploid foreskin cells); assay: Toxicity to Huf host cells (gross cell morphology) in the VZV assay; assay type: cell-based
# [13] = test system: tumors; assay: Antitumor activity (general statement); conditions: general statement
# [14] = test system: P388 leukemia; assay: In vivo antitumor test, P388 leukemia in mice
# [15] = test system: M5076 sarcoma; assay: In vivo antitumor test, M5076 sarcoma in mice
# [16] = test system: L1210 leukemia; assay: In vivo antitumor test, L1210 leukemia in mice; conditions: for Number of 60 day survivors per test group: QD1-9
# [17] = test system: P388/ara-C (Arabinosyl cytosine resistant P388 leukemia); assay: In vivo antitumor test, ara-C resistant P388 leukemia in mice; conditions: for activity against ara-C resistant P388: result in words
# [18] = test system: L1210/ara-C Leukemia; assay: In vivo antitumor test, ara-C resistant L1210 leukemia in mice; conditions: for Number of 60 day survivors per test group / % ILS: Table IV; for Number of 60 day survivors per test group: QD1-9; for % ILS: QD1-9, terminated day 60; for activity against ara-C resistant tumor: result in words
# [19] = test system: MRC5 (diploid human embryonic lung cells); assay: Toxicity to MRC5 host cells (gross cell morphology) in the CMV assay
# [20] = test system: MX-1 Mammary; assay: Human tumor xenograft in athymic mice, MX-1 mammary (subrenal capsule); conditions: for % Tumor Inhibition: day 0 to 11; for % tumor weight inhibition: Table IV, QD1-9, day 0 to day 11
# [21] = minimum toxic drug concentration / ID50, Vero cells
# [22] = Table II Experiment 1, tumor IP, IP QD1-9, OD 1.0 mg/kg/injection
# [23] = Table II Experiment 2, tumor IP, IP QD1-9, OD 1.5 mg/kg/injection
# [24] = Table II Experiment 1, tumor IP, IP QD1-13, OD 0.5 mg/kg/injection
# [25] = IP L1210, IP treatment daily days 1-9, optimum dose 1 mg/kg/inj (Table I)
# [26] = IP L1210, IP treatment every 4th day, days 1, 5, 9, optimum dose 4 mg/kg/inj
# [27] = IP L1210, IP treatment every 3 hr x 8, days 1, 5, 9, optimum dose 0.5 mg/kg/inj
# [28] = Table II Experiment 1, tumor IP, oral drug administration, OD 2.25 mg/kg/injection
# [29] = Table II Experiment 2, tumor IP, IP QD1-9, OD 1.0 mg/kg/injection
# [30] = Table II Experiment 2, tumor IP, oral drug administration, OD 2.25 mg/kg/injection
# [31] = Table II Experiment 2, tumor SC, IP QD1-9, OD 1.0 mg/kg/injection
# [32] = Table II Experiment 1, tumor IP, IP QD1-9, OD 1.5 mg/kg/injection
# [33] = listed as cyclopentenyl cytosine
smiles,measurement,setting,value
Nc1ccn([C@@H]2C=C(CO)[C@@H](O)[C@H]2O)c(=O)n1 [CPE-C],"activity in vivo, mouse tail pox model",[1]; 1.5 mg/kg,good protection; also recorded: Excellent activity
same,"Pox Count (mean value, 20 mice)","[1]; CPE-C 1.5 mg/kg, QD 1-7 subcutaneous, PBS control 45.8",0.8
same,VR (virus rating),"[2]; Vero cells, strain HF, two determinations",3.8 and 2.7
same,antiviral activity,[2]; result in words,greater than arabinosyl adenine (ara-A); also recorded: Potent activity
same,IC50,"[3]; Human alphaherpesvirus 2, Vero cells, strain MS, inhibition of virus-induced cytopathogenic effects, read-out: ID50 (the source's name)",2.7 µg/mL
same,VR (virus rating),"[3]; Vero cells, strain MS",2.3
same,antiviral activity,[3]; result in words,Potent activity
same,potency relative to ara-A,[4],about 100 times
same,IC50,"[4]; Orthopoxvirus vaccinia, Vero, in Chlorocebus sabaeus, read-out: ID50",0.1 µg/mL
same,VR (virus rating),"[4]; Vero cells, strain Lederle CA",4.6
same,antiviral activity,[4]; result in words,very sensitive to CPE-C; also recorded: Potent activity
same,log reduction at 0.1 µg/mL,"[5]; Human betaherpesvirus 5, 144 h, 0.1 μg/ml, MRC5 cells, read-out: Reduction in Virus Yield",0.8
same,log reduction at 0.32 µg/mL,"[5]; Human betaherpesvirus 5, 144 h, 0.32 μg/ml, MRC5 cells, read-out: Reduction in Virus Yield",1.3
same,log reduction at 1 µg/mL,"[5]; Human betaherpesvirus 5, 144 h, 1.0 μg/ml, MRC5 cells, read-out: Reduction in Virus Yield",1.4
same,log reduction at 3.2 µg/mL,"[5]; Human betaherpesvirus 5, 144 h, 3.2 μg/ml, MRC5 cells, read-out: Reduction in Virus Yield",1.5
same,log reduction at 10 µg/mL,"[5]; Human betaherpesvirus 5, 144 h, 10 μg/ml, MRC5 cells, read-out: Reduction in Virus Yield",1.9
same,log reduction at 32 µg/mL,"[5]; Human betaherpesvirus 5, 144 h, 32 μg/ml, MRC5 cells, read-out: Reduction in Virus Yield",2
same,log reduction at 100 µg/mL,"[5]; Human betaherpesvirus 5, 144 h, 100 μg/ml, MRC5 cells, read-out: Reduction in Virus Yield",2
same,log reduction at 320 µg/mL,"[5]; Human betaherpesvirus 5, 144 h, 320 μg/ml, MRC5 cells, read-out: Reduction in Virus Yield",5.3
same,antiviral activity,[5]; result in words,Potent activity; also recorded: Activity was observed for both compounds
same,IC50,"[6]; Japanese encephalitis virus, Vero, read-out: ID50",0.1 µg/mL
same,VR (virus rating),"[6]; Vero cells, strain Najayama",2.4
same,TI (therapeutic index),[6]; [21],3.1
same,antiviral activity,[6]; result in words,Good activity; also recorded: greater potency and higher therapeutic index than Ribavarin
same,VR (virus rating),[7],1.5
same,IC50,"[7]; Punta Toro virus, Vero, read-out: ID50",1.01 µg/mL
same,TI (therapeutic index),[7]; [21],0.3
same,antiviral activity,[7]; result in words,Good activity; also recorded: Virus ratings greater than two
same,VR (virus rating),[8],2.4
same,antiviral activity,[8],Good activity; also recorded: Virus ratings greater than two
same,IC50,"[8]; MDCK, in Canis lupus familiaris, read-out: ID50",18.2 µg/mL
same,inhibition of cell growth,[9]; continuous exposure for 5 days to 10^-8 to 10^-6 M,progressive inhibition of cell growth
same,differentiation,"[9]; continuous exposure for 5 days to 10^-8 to 10^-6 M, general statement",differentiation to a non-malignant phenotype
same,cell population that reduced nitroblue tetrazolium,[9]; four days after exposure to 10^-7 M,95%
same,RNA synthesis,[10]; 10^-7 M,inhibited to a lesser extent
same,"DNA synthesis, % of control levels",[10]; 24 hrs. after exposure to 10^-7 M,10%
same,inhibition of CTP synthesis,[11],powerful inhibitors of CTP synthesis
same,Host cell toxicity (gross cell morphology),[12]; 320 μg/ml,Slightly toxic
same,Host cell toxicity (gross cell morphology),[12]; 100 and 32 μg/ml,Very slightly toxic
same,activity against ara-C resistant tumors and human tumors grown in mice,[13],particularly potent and active agents
same,% ILS,[14]; [22],88%
same,LCK,[14]; [22],0.9 log
same,% ILS,[14]; [23],69%
same,LCK,[14]; [23],0.1 log
same,activity,[14]; result in words,only modest activity
same,% ILS,[15]; [24],5%
same,LCK,[15]; [24],-2.0 log
same,activity,[15]; result in words,inactive
same,long term survivors,"[16]; IP 1.0 mg/kg, QD 1-9, 30-day, 1.5 mg/kg",Multiple 30-day survivors; also recorded: multiple long term survivors
same,ILS (median percent increase in life span),[16]; [25],124%
same,LCK (approximate log cell kill at the end of treatment),[16]; [25],3.0 log
same,ILS (median percent increase in life span),[16]; [26],91%
same,LCK (approximate log cell kill at the end of treatment),[16]; [26],0.1 log
same,ILS (median percent increase in life span),[16]; [27],116%
same,LCK (approximate log cell kill at the end of treatment),[16]; [27],1.5 log
same,schedule dependency,"[16]; QD 1-9, Q4D, Q3Hx8",no significant schedule dependency
same,% ILS,"[16]; Table II Experiment 1, tumor IC (intracerebral), IP QD1-9, OD 1.5 mg/kg/injection",45%
same,% ILS,[16]; [22],212%
same,LCK,[16]; [22],> 6.0 log
same,Number of 30 day survivors out of six mice,[16]; [22],4
same,% ILS,[16]; [28],125%
same,LCK,[16]; [28],1.9 log
same,% ILS,"[16]; Table II Experiment 1, tumor SC, IP QD1-9, OD 1.5 mg/kg/injection",109%
same,% ILS,"[16]; Table II Experiment 2, tumor IC (intracerebral), IP QD1-9, OD 1.0 mg/kg/injection",42%
same,% ILS,[16]; [29],201%
same,LCK,[16]; [29],> 5.8 log
same,Number of 30 day survivors out of six mice,[16]; [29],2
same,% ILS,[16]; [30],57%
same,LCK,[16]; [30],-2.2 log
same,% ILS,[16]; [31],83%
same,Number of 30 day survivors out of six mice,[16]; [31],1
same,Number of 60 day survivors per test group,"[16]; Table IV, CPE-C 1.0 mg/kg",1/10
same,% ILS,"[16]; Table IV, CPE-C 1.0 mg/kg, QD1-9, terminated day 60",116%
same,Number of 60 day survivors per test group,"[16]; Table IV, CPE-C 1.5 mg/kg",2/9
same,% ILS,"[16]; Table IV, CPE-C 1.5 mg/kg, QD1-9, terminated day 60",171%
same,% ILS,"[16]; Table IV, CPE-C 2.25 mg/kg, QD1-9, terminated day 60",146%
same,"potency relative to carbodine, in vivo antitumor",[16]; in vivo antitumor experiments,A similar potency difference
same,activity and potency relative to carbodine,[16]; initial in vivo tests,significantly greater levels of activity and potency than carbodine
same,ILS,"[16]; intracerebral L1210, text",about 40%
same,"activity, head to head comparison with 3DU",[16]; standard L1210 leukemia,significantly better
same,% ILS,[17]; [32],165%
same,LCK,[17]; [32],> 6.5 log
same,Number of 30 day survivors out of six mice,[17]; [32],3
same,% ILS,[17]; [23],133%
same,LCK,[17]; [23],3.8 log
same,activity against ara-C resistant P388,[17],collaterally sensitive
same,activity against ara-C resistant P388,[17]; [33],significant antitumor activity
same,Number of 60 day survivors per test group,[18]; CPE-C 1.0 mg/kg,6/10
same,% ILS,[18]; CPE-C 1.0 mg/kg,> 650%
same,Number of 60 day survivors per test group,[18]; CPE-C 1.5 mg/kg,5/9
same,% ILS,[18]; CPE-C 1.5 mg/kg,> 650%
same,Number of 60 day survivors per test group,[18]; CPE-C 2.25 mg/kg,6/10
same,% ILS,[18]; CPE-C 2.25 mg/kg,> 650%
same,activity against ara-C resistant tumor,[18],producing multiple cures against the resistant tumor; also recorded: collaterally sensitive
same,activity against ara-C resistant tumor,[18]; [33],significant antitumor activity
same,Host cell toxicity (gross cell morphology),[19]; 320 μg/ml,Slightly toxic
same,Host cell toxicity (gross cell morphology),"[19]; each of 100, 32, 10, 3.2 and 1.0 μg/ml",Very slightly toxic
same,growth inhibition,[20],100%
same,potency relative to 3DU,[20]; MX-1 xenograft,about 100 times
same,% Tumor Inhibition,"[20]; Table III Experiment 1, SRC, IP QD1-9, OD 1.5 mg/kg/injection",100%
same,% Tumor Inhibition,"[20]; Table III Experiment 2, SRC, IP QD1-9, OD 2.25 mg/kg/injection",95%
same,% tumor weight inhibition,[20]; CPE-C 1.5 mg/kg,94%
same,% tumor weight inhibition,[20]; CPE-C 2.25 mg/kg,100%
same,activity,[20]; result in words,complete inhibition of tumor growth
